{"source": "patent USRE37623E1", "about": "“Enzyme inhibitors, their synthesis, and methods for use” (priority 1993, dated 2002)", "key": {"DHUDase": {"target": "T1, DHUDase (Mus musculus, UniProt Q8CHR6)", "T1 construct": "The supernatant fluids (cytosol) were collected and used as an enzyme source; from tissue; host or cells: mouse liver cytosol (female Swiss Albino CD1 mice)", "T1 sequence (Q8CHR6 1-1025)": "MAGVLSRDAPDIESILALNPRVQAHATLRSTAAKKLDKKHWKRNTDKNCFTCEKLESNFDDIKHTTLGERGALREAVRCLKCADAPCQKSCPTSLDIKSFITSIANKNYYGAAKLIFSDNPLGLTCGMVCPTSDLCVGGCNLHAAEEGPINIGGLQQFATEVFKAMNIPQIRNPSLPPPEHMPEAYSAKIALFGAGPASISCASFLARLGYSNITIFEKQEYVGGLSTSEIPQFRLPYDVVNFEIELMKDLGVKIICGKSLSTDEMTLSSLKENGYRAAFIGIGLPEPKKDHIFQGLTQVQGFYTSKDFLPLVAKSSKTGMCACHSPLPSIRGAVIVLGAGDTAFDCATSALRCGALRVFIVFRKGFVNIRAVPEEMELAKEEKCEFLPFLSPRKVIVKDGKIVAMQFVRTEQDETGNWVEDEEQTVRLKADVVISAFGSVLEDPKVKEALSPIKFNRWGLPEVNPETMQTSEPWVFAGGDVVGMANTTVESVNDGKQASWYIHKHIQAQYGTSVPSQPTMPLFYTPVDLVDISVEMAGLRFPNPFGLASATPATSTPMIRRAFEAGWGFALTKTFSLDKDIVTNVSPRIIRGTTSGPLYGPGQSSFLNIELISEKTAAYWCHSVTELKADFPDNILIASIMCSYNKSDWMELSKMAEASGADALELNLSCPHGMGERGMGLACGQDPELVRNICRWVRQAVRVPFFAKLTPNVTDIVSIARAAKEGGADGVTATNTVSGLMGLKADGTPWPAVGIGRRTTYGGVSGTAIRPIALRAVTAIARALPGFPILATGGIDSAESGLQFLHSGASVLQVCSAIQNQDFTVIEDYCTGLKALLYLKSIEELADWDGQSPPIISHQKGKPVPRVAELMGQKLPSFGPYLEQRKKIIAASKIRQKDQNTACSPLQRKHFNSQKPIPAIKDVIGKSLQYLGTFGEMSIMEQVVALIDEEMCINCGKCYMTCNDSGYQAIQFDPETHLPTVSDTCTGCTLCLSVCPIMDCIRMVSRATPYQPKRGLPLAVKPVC", "test": "Inhibition of dihydrouracil dehydrogenase in mouse liver cytosol (apparent Ki)", "format": "biochemical", "conditions": "enzyme from mouse liver cytosol; 25 μM uracil; ± S.D.", "protocol": "(§1) Mouse livers were obtained from female Swiss Albino (CD1) mice weighing 20-24 g (Charles River Laboratories, Boston, Mass.). Mice were sacrificed by cervical dislocation and the livers removed, weighed, minced, and homogenized in ice-cold (3:1, v/w) buffer [20 mM potassium phosphate. pH 8.0; 1 mM dithiothreitol (DTT), 1 mM EDTA] using a Polytron homogenizer (Brinkman Instruments, Westbury, N.J.). The homogenates were centrifuged at 105,000×g for 1 h. at 4° C. The supernatant fluids (cytosol) were collected and used as an enzyme source.\n(§2) All assays described below were conducted at 37° C. under conditions where enzyme activity was linear with respect to time and enzyme concentration. For each inhibitor, 5 concentrations were used ranging from […]. Reactions were started by the addition of extract and stopped by boiling in a water bath for 2 minutes followed by freezing, Precipitated proteins were removed by centrifugation. Substrates were separated from products in the supematant by TLC and the radioactivity in the spots was determined on a percentage basis using a Berthold LB-2821 Automatic TLC-Linear Analyzer.\nThe activity of the enzyme was measured by following the formation of dihydrouracil, carbamyl-β-alanine, and β-alanine from [6 -^14C]uracil as previously described. […] DHUDase activity was determined as the sum of the products dihydrouracil, carbamyl-β-alanine, and β-alanine. […]"}, "UrdPase": {"target": "T2, UrdPase", "T2 construct": "The supernatant fluids (cytosol) were collected and used as an enzyme source", "test": "Inhibition of uridine phosphorylase in mouse liver cytosol (apparent Ki, Dixon plots)", "format": "biochemical", "conditions": "for Ki: enzyme from mouse liver cytosol, uridine 1 mM, ± S.D.", "protocol": "as §1, §2\nNucleoside cleavage was measured isotopically by following the formation of nucleobases from their respective nucleosides as previously described. […] The incubation was terminated after 30 min. Uridine and thymidine were separated from their respective nucleobases on silica gel TLC plates developed with CHCl3:MEOH:AcOH (90:5:5, v/v/v). The Rf values were uridine, 0.07; uracil, 0.43; thymidine, 0.14; and thymine, 0.62.\nDetermination and significance of apparent Ki values was pertbrined using uridine (1 mM) and 5 different concentrations of the inhibitor ranging from […]. Apparent Ki values were estimated from Dixon's plots (1/v vs. [I]) of the data by a computer program with least squares fitting. Apparent Ki, values are related to Ki values by the following equation:\nApparent Ki=Kis(1+[S]/Km)/1+([S]/Km) (Kis/Kii)\nwhere Kis and Kii are inhibition constants that would have been estimated from the replot of slope and intercept, respectively, of a Lineweaver-Burk plots vs. [I]. If a compound is a competitive inhibitor with respect to uridine, Kii=∝ and Kis=Ki. Therefore, the apparent .Ki=Ki(1+[S]1 Km). […] It should be noted, however, that we have not characterized the compounds used in this study with regard to the type of inhibition (competitive, noncompetitive, or uncompetitive) or whether they are substrates for the enzyme."}, "[1]": {"test": "Pharmacokinetics of PSAU in CD-1 mice", "format": "in vivo", "conditions": "female CD-1 mice; for Cmax / half-life / MRT: mouse, ip, plasma; for Cmax: read-out: Cmax, peak plasma concentration; for half-life: read-out: Apt½, elimination half-life (converted); for MRT: read-out: MRT, mean residence time", "protocol": "PSAU was injected i.p. into female CD-1 mice. At various time intervals, 250 μl of whole blood were collected from the orbital sinuses from three mice by a heparinized Natelson pipet and placed on ice. The whole blood was then centrifuged for 5 minutes to separate the plasma which was kept in a -20° C. freezer until preparation for analysis by the HPLC. The pharmacokinetic parameters were estimated by compartmental model-independent methods using a […]/Base program. The AUC was determined by the trapezoidal rule with extrapolation to time infinity using the terminal disposition slope (K) generated by a weighted nonlinear least-squares regression of an exponential fit of the data, with the weighted square factor set as the reciprocal of the calculated concentration squared. Elimination half-life of uridine was calculated from 0.693/K The total plasma clearance (C1) was calculated by dividing the dose by the AUC and the weight of the mouse. The peak plasma concentration (Cmax) values and time to peak plasma concentration (Tmax) values were observed experimental values. Renal clearance (CLR) of uridine was calculated by dividing the […] by the AUC."}}, "note": "Like-named read-outs stand apart in the source and are kept apart here.", "data": [{"compound": "O=c1[nH]cc([Se]c2ccccc2)c(=O)[nH]1", "note": "[5-Phenylselenenyluracil (PSU), 5-Phenylselenenyluracil]", "values": [{"measurement": "Ki", "setting": "DHUDase", "value": "4.8 ± 0.6", "unit": "µM"}, {"measurement": "melting point", "value": "249 to 251", "unit": "°C"}, {"measurement": "Ki", "setting": "UrdPase", "value": "205 ± 35", "unit": "µM"}]}, {"compound": "CCOCn1cc([Se]c2ccccc2)c(=O)[nH]c1=O", "note": "[1-Ethoxymethyl-5-phenylselenenyluracil, 1-(Ethoxymethyl)-5-(phenylselenenyl)uracil]", "values": [{"measurement": "melting point", "value": "143 to 145", "unit": "°C"}, {"measurement": "Ki", "setting": "UrdPase", "value": "313 ± 32", "unit": "µM"}]}, {"compound": "O=c1[nH]c(=O)n(COCCO)cc1Cc1ccccc1", "note": "[5-Benzylacyclouridine (BAU), 5-Benzylacyclouridine, reference compound]", "values": [{"measurement": "Ki", "setting": "UrdPase", "value": "3.1 ± 0.22", "unit": "µM"}]}, {"compound": "O=c1[nH]c(=O)n(COCCO)c([Se]c2ccccc2)c1F", "note": "[6-(Phenylselenenyl)acyclo-5-FUrd]", "values": [{"measurement": "Ki", "setting": "UrdPase", "value": "35 ± 5.6", "unit": "µM"}]}, {"compound": "O=c1ccn([C@@H]2O[C@H](CO)[C@@H](O)[C@H]2O)c(=O)[nH]1", "note": "[uridine]", "values": [{"measurement": "Km", "setting": "UrdPase; UrdPase from mouse liver, substrate", "value": 66, "unit": "µM"}]}, {"compound": "O=c1[nH]c(=O)n([C@H]2C[C@H](O)[C@@H](CO)O2)cc1[Se]c1ccccc1", "note": "[5-(Phenylselenenyl)-2′-deoxyuridine, 5-(phenylselenenyl)-2′-deoxyuridine]", "values": [{"measurement": "Ki", "setting": "UrdPase", "value": "5.5 ± 0.6", "unit": "µM"}]}, {"compound": "O=c1[nH]c(=O)n([C@@H]2O[C@H](CO)[C@@H](O)[C@H]2O)cc1[Se]c1ccccc1", "note": "[5-(Phenylselenenyl)uridine, 5-(phenylselenenyl)uridine]", "values": [{"measurement": "Ki", "setting": "UrdPase", "value": "4 ± 0.2", "unit": "µM"}]}, {"compound": "O=c1[nH]c(=O)n(COCCO)cc1[Se]c1ccccc1", "note": "[PSAU, 1-[(2-Hydroxyethoxy)methyl]-5-(phenylselenenyl)uracil]", "values": [{"measurement": "Ki", "setting": "UrdPase", "value": "3.8 ± 0.8", "unit": "µM"}, {"measurement": "ApVd, volume of distribution", "setting": "[1]; PSAU 30 mg/kg i.p.", "value": 0.331, "unit": "L/kg"}, {"measurement": "ApVd, volume of distribution", "setting": "[1]; PSAU 60 mg/kg i.p.", "value": 0.356, "unit": "L/kg"}, {"measurement": "Cmax", "setting": "[1]; PSAU 30 mg/kg i.p.", "value": 100, "unit": "µM"}, {"measurement": "Cmax", "setting": "[1]; PSAU 60 mg/kg i.p.", "value": 210, "unit": "µM"}, {"measurement": "half-life", "setting": "[1]; PSAU 30 mg/kg i.p.", "value": 42, "unit": "min"}, {"measurement": "MRT", "setting": "[1]; PSAU 30 mg/kg i.p.", "value": 1.28, "unit": "h"}, {"measurement": "half-life", "setting": "[1]; PSAU 60 mg/kg i.p.", "value": 84, "unit": "min"}, {"measurement": "MRT", "setting": "[1]; PSAU 60 mg/kg i.p.", "value": 2.27, "unit": "h"}]}, {"compound": "O=c1cc([Se]c2ccccc2)n(COCCO)c(=O)[nH]1", "note": "[6-(Phenylselenenyl)acyclouridine, 1-[(2-hydroxyethoxy)methyl]-6-(phenylselenenyl)uridine]", "values": [{"measurement": "Ki", "setting": "UrdPase", "value": "19.3 ± 1.5", "unit": "µM"}]}, {"compound": "O=c1[nH]cc(Sc2ccccc2)c(=O)[nH]1", "note": "[5-Phenylthiouracil (PTU), 5-(Phenylthio)uracil]", "values": [{"measurement": "Ki", "setting": "DHUDase", "value": "5.4 ± 0.6", "unit": "µM"}, {"measurement": "Ki", "setting": "UrdPase", "value": "744 ± 85", "unit": "µM"}]}]}
